Results: ChEMBL document CHEMBL1201862, “PubChem BioAssay data set” (2004)
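Following 48 hours of exposure in 96-well plates, responses at five concentrations were used to interpolate endpoints linearly. At the GI50, growth is halved.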 Activity calls are given as the source filed them. Rule as the data show it: active = GI50 up to about 1.1 µM and inactive = higher.

How the values were obtained:
Assay in all cases: NCI-60 cell line screen, 48 h
[1] = system: U-251
[2] = system: UACC-257
[3] = system: SF-268
[4] = system: Malme-3M
[5] = system: OVCAR-4
[6] = system: RXF 393
[7] = system: SNB-75
[8] = system: ACHN
[9] = system: BT-549
[10] = system: KM12
[11] = system: T47D
[12] = system: Hs-578T
[13] = system: HT-29
[14] = system: SK-MEL-5
[15] = system: HOP-62
[16] = system: NCI-H23
[17] = system: OVCAR-5
[18] = system: SF-539
[19] = system: SN12C
[20] = system: HCT-15

Compound	GI50 [1]	GI50 [2]	GI50 [3]	GI50 [4]	GI50 [5]	GI50 [6]	GI50 [7]	GI50 [8]	GI50 [9]	GI50 [10]	GI50 [11]	GI50 [12]	GI50 [13]	GI50 [14]	GI50 [15]	GI50 [16]	GI50 [17]	GI50 [18]	GI50 [19]	GI50 [20] [µM]
CN(C)c1ccc(C(=O)NCCCCCCC(=O)NO)cc1	0.486 µM (active)	0.237 µM (active)	0.435 µM (active)	0.0948 µM (active)	1.64 µM (inactive)	0.303 µM (active)	0.251 µM (active)	0.67 µM (active)	1.7 µM (inactive)	0.684 µM (active)	0.216 µM (active)	0.9 µM (active)	0.349 µM (active)	0.289 µM (active)	2.3 µM (inactive)	0.562 µM (active)	0.218 µM (active)	0.589 µM (active)	0.378 µM (active)	1.27
NNc1ccccc1Cl	48.4 µM (inactive)	> 100 µM (inactive)	> 100 µM (inactive)	> 100 µM (inactive)	91.2 µM (inactive)	> 100 µM (inactive)	> 100 µM (inactive)	> 100 µM (inactive)	> 100 µM (inactive)	> 100 µM (inactive)	59.8 µM (inactive)	> 100 µM (inactive)	> 100 µM (inactive)	30.5 µM (inactive)	> 100 µM (inactive)	> 100 µM (inactive)	> 100 µM (inactive)	> 100 µM (inactive)	> 100 µM (inactive)	> 100
Cc1ccc(Nc2nc3[nH]ccc3c(=O)[nH]2)cc1	> 100 µM (inactive)	> 100 µM (inactive)	65.3 µM (inactive)	> 100 µM (inactive)	> 100 µM (inactive)	14.5 µM (inactive)	2.24 µM (inactive)	> 100 µM (inactive)	70.3 µM (inactive)	> 100 µM (inactive)	56.1 µM (inactive)	35.8 µM (inactive)	61.9 µM (inactive)	> 100 µM (inactive)	> 100 µM (inactive)	> 100 µM (inactive)	> 100 µM (inactive)	> 100 µM (inactive)	> 100 µM (inactive)	87.5
CCC/C(Cl)=N\OC(=O)Nc1cccc(C(F)(F)F)c1	18.5 µM (inactive)	17.5 µM (inactive)	27.3 µM (inactive)	13.2 µM (inactive)	22.6 µM (inactive)	19.6 µM (inactive)	10.4 µM (inactive)	16.3 µM (inactive)	10.6 µM (inactive)	17.6 µM (inactive)	23.9 µM (inactive)	29.7 µM (inactive)	21.8 µM (inactive)	15.5 µM (inactive)	> 100 µM (inactive)	20.7 µM (inactive)	20.3 µM (inactive)	18.7 µM (inactive)	15.1 µM (inactive)	13.5
C=CCN(c1cc(OCc2ccccc2)c2c(c(C)cn2S(=O)(=O)c2ccc([N+](=O)[O-])cc2)c1[N+](=O)[O-])S(C)(=O)=O	> 100 µM (inactive)	> 100 µM (inactive)	> 100 µM (inactive)	> 100 µM (inactive)	> 100 µM (inactive)	> 100 µM (inactive)	> 37.8 µM (inactive)	> 100 µM (inactive)	> 100 µM (inactive)	4.86 µM (inactive)	> 100 µM (inactive)	> 100 µM (inactive)	8.77 µM (inactive)	43.7 µM (inactive)	> 100 µM (inactive)	> 100 µM (inactive)	> 100 µM (inactive)	> 100 µM (inactive)	> 100 µM (inactive)	31.6
O=c1c2ccccc2n2nnc3ccc(NCCCNCCNCCCNc4ccc5nnn6c7ccccc7c(=O)c4c56)c1c32	0.759 µM (active)	8.73 µM (inactive)	1.79 µM (inactive)	5.83 µM (inactive)	2.3 µM (inactive)	1.37 µM (inactive)	7.89 µM (inactive)	0.986 µM (active)	7.36 µM (inactive)	3.24 µM (inactive)	> 37.4 µM (inactive)	5.52 µM (inactive)	0.121 µM (active)	> 50 µM (inactive)	2.99 µM (inactive)	3.83 µM (inactive)	6.44 µM (inactive)	0.724 µM (active)	0.457 µM (active)	3.33
COC(OC)C1OCC(n2cc(F)c(=O)[nH]c2=O)C1O (stereo not given)	> 100 µM (inactive)	> 100 µM (inactive)	> 100 µM (inactive)	> 100 µM (inactive)	> 100 µM (inactive)	42.9 µM (inactive)	> 100 µM (inactive)	> 100 µM (inactive)	> 100 µM (inactive)	> 100 µM (inactive)	> 100 µM (inactive)	> 100 µM (inactive)	> 100 µM (inactive)	> 100 µM (inactive)	> 100 µM (inactive)	> 100 µM (inactive)	> 100 µM (inactive)	> 100 µM (inactive)	> 100 µM (inactive)	> 100
O=C(CNc1ccc([N+](=O)[O-])cc1)Nn1c(-c2ccccc2)nc2ccccc2c1=O	1.95 µM (inactive)	7.78 µM (inactive)	4.23 µM (inactive)	2.03 µM (inactive)	2.79 µM (inactive)	2.82 µM (inactive)	3.73 µM (inactive)	3.95 µM (inactive)	1.82 µM (inactive)	4.56 µM (inactive)	3.11 µM (inactive)	2.73 µM (inactive)	3.06 µM (inactive)	1.04 µM (active)	11.2 µM (inactive)	2.43 µM (inactive)	5.73 µM (inactive)	2.85 µM (inactive)	2.2 µM (inactive)	2.93
O[C@@H]1C[C@H](Cl)c2c(Cl)sc(Cl)c21	> 100 µM (inactive)	> 100 µM (inactive)	> 100 µM (inactive)	> 100 µM (inactive)	> 100 µM (inactive)	> 100 µM (inactive)	> 100 µM (inactive)	> 100 µM (inactive)	> 100 µM (inactive)	> 100 µM (inactive)	33.4 µM (inactive)	> 100 µM (inactive)	> 100 µM (inactive)	> 100 µM (inactive)	> 100 µM (inactive)	> 100 µM (inactive)	> 100 µM (inactive)	> 100 µM (inactive)	> 100 µM (inactive)	> 100
Cn1c(=O)cc(NCc2ccc(Cl)cc2)[nH]c1=O	40.3 µM (inactive)	> 100 µM (inactive)	18.8 µM (inactive)	73.3 µM (inactive)	> 100 µM (inactive)	68.7 µM (inactive)	24 µM (inactive)	49.7 µM (inactive)	76.9 µM (inactive)	> 100 µM (inactive)	91.2 µM (inactive)	18.8 µM (inactive)	> 100 µM (inactive)	> 100 µM (inactive)	22.4 µM (inactive)	> 100 µM (inactive)	> 100 µM (inactive)	32.4 µM (inactive)	> 100 µM (inactive)	> 100
COc1ccc2c(c1)O[C@@H]1[C@@H](OC3OC(CO)C(O)C(O)C3O)Oc3cc(OC)c(OC)cc3[C@]1(O)C2=O (stereo not given in full)	> 100 µM (inactive)	> 100 µM (inactive)	> 100 µM (inactive)	> 100 µM (inactive)	> 100 µM (inactive)	> 100 µM (inactive)	> 100 µM (inactive)	> 100 µM (inactive)	> 100 µM (inactive)	> 100 µM (inactive)	> 100 µM (inactive)	> 100 µM (inactive)	> 100 µM (inactive)	> 100 µM (inactive)	> 100 µM (inactive)	> 100 µM (inactive)	> 100 µM (inactive)	> 100 µM (inactive)	> 100 µM (inactive)	> 100
COc1ccc(N2C(=O)CS(=O)(=O)C2c2cccc(Oc3ccccc3)c2)cc1 (stereo not given)	4.66 µM (inactive)	2.74 µM (inactive)	4.98 µM (inactive)	7.74 µM (inactive)	5.79 µM (inactive)	4.04 µM (inactive)	4.28 µM (inactive)	4.92 µM (inactive)	7.74 µM (inactive)	4.4 µM (inactive)	7.45 µM (inactive)	3.78 µM (inactive)	3.68 µM (inactive)	4.57 µM (inactive)	7.53 µM (inactive)	4.99 µM (inactive)	7.73 µM (inactive)	3.54 µM (inactive)	4.65 µM (inactive)	3.33
C[n+]1c2ccccc2c(CNC(CCC(N)=O)C(=O)O)c2ccccc21 (stereo not given)	3.31 µM (inactive)	4.31 µM (inactive)	1.77 µM (inactive)	4.44 µM (inactive)	3.46 µM (inactive)	1.99 µM (inactive)	5.22 µM (inactive)	1.76 µM (inactive)	4.59 µM (inactive)	2.46 µM (inactive)	0.0221 µM (active)	5.68 µM (inactive)	1.22 µM (inactive)	1.99 µM (inactive)	4.94 µM (inactive)	3.9 µM (inactive)	9.1 µM (inactive)	2.34 µM (inactive)	2.64 µM (inactive)	1.24
CSc1nc(C)cc(Nc2ccc(O)c(CN3CCOCC3)c2)n1	> 100 µM (inactive)	> 100 µM (inactive)	> 100 µM (inactive)	> 100 µM (inactive)	> 100 µM (inactive)	> 100 µM (inactive)	> 100 µM (inactive)	> 100 µM (inactive)	> 100 µM (inactive)	> 100 µM (inactive)	71.9 µM (inactive)	> 100 µM (inactive)	76.9 µM (inactive)	65 µM (inactive)	> 100 µM (inactive)	> 100 µM (inactive)	> 100 µM (inactive)	> 100 µM (inactive)	> 100 µM (inactive)	> 100
